In patent US4382090A, “N-Thiazolylmethylthioalkyl-N'alkylamidines and related compounds” (Eli Lilly and Company, priority 1981, dated 1983):

Assays:
H2 -receptor [1] = settings: cited from earlier work
H2 -receptors = target: T1, H2 -receptors (Rattus norvegicus, UniProt P25102); assay: H2-receptor blocking activity, isolated rat uterine horn (histamine relaxation of KCl-contracted uterus); settings: for Kb: rat uterus, Schild plot, read-out: KB (dissociation constant of the antagonist)
T1 construct: from tissue; host or cells: uterine horn of estrone-treated female albino rats
Procedure: The following assay for H2 -receptor blocking activity was employed. Female albino rats were treated with estrone 24 hours prior to the initiation of the experiment. The rats were sacrificed and the uterine horns removed therefrom and suspended at ambient temperatures in isolated organ baths containing De Jalon's solution. After equilibration, the uterine strips are exposed to 50 millimole aqueous potassium chloride, which produces a sustained contraction. When the uterus is so contracted, histamine produces a dose-dependent H2 -receptor-mediated relaxation. A control dose-response curve to histamine is constructed on each tissue. Following thorough washout of the histamine after obtaining the control dose-response curve, each antagonist (the compounds of this invention) is added for 30 minutes at a concentration of 10^-5 molar. The uterine strips are then contracted with aqueous potassium chloride in the presence of the antagonist and a second dose-response curve to histamine obtained. In the presence of a competitive antagonist, the dose-response curve to histamine is shifted in parallel to the right with no depression of the maximum relative to the control curve. The dose ratio (DR) is calculated for each concentration of antagonist by dividing the ED50 of histamine in the presence of the competitive antagonist by the control ED50 for histamine. The dissociation constant (KB) of the antagonist is calculated from the dose-ratios by the following equation: […]

[2] = Preliminary tests of duration of action
H2 -receptor [3] = settings: cited from earlier work; remark: listed apart in the source
[4] = cited from earlier work
[5] = cited from earlier work; remark: listed apart in the source

T1 sequence (P25102 whole entry): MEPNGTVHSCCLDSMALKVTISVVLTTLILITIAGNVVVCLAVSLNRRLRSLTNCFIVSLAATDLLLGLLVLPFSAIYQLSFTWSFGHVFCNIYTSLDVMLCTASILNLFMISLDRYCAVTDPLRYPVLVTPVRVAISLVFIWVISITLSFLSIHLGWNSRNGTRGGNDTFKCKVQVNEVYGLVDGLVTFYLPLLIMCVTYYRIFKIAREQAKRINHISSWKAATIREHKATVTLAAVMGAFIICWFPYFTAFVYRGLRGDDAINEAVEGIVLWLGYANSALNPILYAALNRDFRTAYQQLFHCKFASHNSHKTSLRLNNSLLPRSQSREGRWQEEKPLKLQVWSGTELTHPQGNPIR

For `C#CCNC(=C[N+](=O)[O-])NCCSCc1ccc(CN(C)C)o1` [1-nitro-2-(2-propynylamino)-2-(2-[(5-dimethylaminomethyl-2-furyl)methylthio]ethylamino)ethylene], the “activity relative to cimetidine in a standard H2 -receptor assay” value (H2 -receptor [1]) is given as 7.45 times.
In the case of `CNC(=C[N+](=O)[O-])NCCSCc1csc(CN(C)C)n1` [N-methyl-N'-2-(2-dimethylaminomethyl-4-thiazolylmethylthio)ethyl 2-nitro-1,1-ethenediamine], the Kb (H2 -receptors) is reported as 87 nM and the “duration of action compared with cimetidine” value [2] is reported as “longer duration of action”.
In the case of `CNC(=NC#N)NCCSCc1csc(NC(=N)N)n1` [2-guanidino-4-[2-(2-cyano-3-methylguanidino)ethylthiomethyl]thiazole], the “activity compared with cimetidine” value (H2 -receptor [3]) is listed as “greatly increased activity over cimetidine”.
In the case of `CN/C(=N/CCSCc1nc[nH]c1C)NC#N` [cimetidine, N-cyano-N'-methyl-N"-[2-([(5-methyl-1H-imidazol-4-yl)methyl]thio)ethyl]guanidine], the Kb (H2 -receptors) is listed as 871 nM, the “Literature LD50 rat iv” value ([4]; iv) is listed as 106 mg/kg and the “Literature LD50 rat oral” value ([4]; oral) is listed as 5000 mg/kg. For the same compound, the “Literature LD50 mouse iv” value [5] was 150 mg/kg.
In the case of `CNC(=NC#N)NCCSCc1csc(CN(C)C)n1` [N-methyl-N'-2-(2-dimethylaminomethyl-4-thiazolylmethylthio)ethyl-N"-cyanoguanidine], the “affinity for the H2 -receptors relative to cimetidine” value (H2 -receptors; rat uterine strips, antagonist 10^-5 molar for 30 minutes) is reported as “about 1.5 times”.
